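In this assay, cells in 96-well plates receive the compound at five concentrations for 48 hours. Endpoints are linearly interpolated between the surrounding concentrations. Definition used: TGI = concentration required for complete inhibition of growth.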
Key:
Test in all cases: DTP human tumour cell line panel, 48 h
U251 CNS = system: U251 CNS
TK-10 renal = system: TK-10 renal
HCC-2998 colon = system: HCC-2998 colon
LOX IMVI melanoma = system: LOX IMVI melanoma
SK-MEL-2 melanoma = system: SK-MEL-2 melanoma
ACHN renal = system: ACHN renal
HCT-116 colon = system: HCT-116 colon
BT-549 breast = system: BT-549 breast
SNB-75 CNS = system: SNB-75 CNS
SK-MEL-28 melanoma = system: SK-MEL-28 melanoma
SN12C renal = system: SN12C renal
SK-OV-3 ovarian = system: SK-OV-3 ovarian
DU-145 prostate = system: DU-145 prostate
SK-MEL-5 melanoma = system: SK-MEL-5 melanoma
UACC-257 melanoma = system: UACC-257 melanoma
K-562 leukemia = system: K-562 leukemia
MDA-MB-231 breast = system: MDA-MB-231 breast
A498 renal = system: A498 renal
SW-620 colon = system: SW-620 colon
UACC-62 melanoma = system: UACC-62 melanoma
HS 578T breast = system: HS 578T breast
786-0 renal = system: 786-0 renal
NCI-H23 lung = system: NCI-H23 lung
NCI-H460 lung = system: NCI-H460 lung
UO-31 renal = system: UO-31 renal
HCT-15 colon = system: HCT-15 colon
IGROV1 ovarian = system: IGROV1 ovarian
RXF 393 renal = system: RXF 393 renal
SR leukemia = system: SR leukemia
HT29 colon = system: HT29 colon
MDA-N = system: MDA-N
OVCAR-8 ovarian = system: OVCAR-8 ovarian
SF-268 CNS = system: SF-268 CNS
HOP-92 NSCLC = system: HOP-92 NSCLC
SF-295 CNS = system: SF-295 CNS
NCI-H226 lung = system: NCI-H226 lung
MDA-MB-435 = system: MDA-MB-435
MOLT-4 leukemia = system: MOLT-4 leukemia
SF-539 CNS = system: SF-539 CNS
MCF7 breast = system: MCF7 breast
M14 melanoma = system: M14 melanoma
COLO 205 colon = system: COLO 205 colon
OVCAR-5 ovarian = system: OVCAR-5 ovarian
OVCAR-3 ovarian = system: OVCAR-3 ovarian
NCI/ADR-RES ovarian = system: NCI/ADR-RES ovarian
HOP-62 NSCLC = system: HOP-62 NSCLC
KM12 colon = system: KM12 colon
PC-3 prostate = system: PC-3 prostate
SNB-19 CNS = system: SNB-19 CNS
NCI-H522 lung = system: NCI-H522 lung
MALME-3M melanoma = system: MALME-3M melanoma
CAKI-1 renal = system: CAKI-1 renal
OVCAR-4 ovarian = system: OVCAR-4 ovarian

Structure (SMILES): COc1c(C)c(OC)c2c(c1O)[C@@H]1[C@@H]3Cc4c(OC)c(C)c(OC)c(O)c4[C@H](CNC(=O)c4ccc5ccccc5n4)N3[C@@H](C#N)[C@H](C2)N1C
- TGI (U251 CNS): > 100 nM
- TGI (TK-10 renal): 2.3 nM
- TGI (HCC-2998 colon): 0.7 nM
- TGI (LOX IMVI melanoma): > 100 nM
- TGI (SK-MEL-2 melanoma): 0.832 nM
- TGI (ACHN renal): > 100 nM
- TGI (HCT-116 colon): 5.85 nM
- TGI (BT-549 breast): 1.72 nM
- TGI (SNB-75 CNS): 14.3 nM
- TGI (SK-MEL-28 melanoma): 5.92 nM
- TGI (SN12C renal): > 100 nM
- TGI (SK-OV-3 ovarian): > 100 nM
- TGI (DU-145 prostate): > 29.6 nM
- TGI (SK-MEL-5 melanoma): 1.86 nM
- TGI (UACC-257 melanoma): 5.46 nM
- TGI (K-562 leukemia): > 100 nM
- TGI (MDA-MB-231 breast): > 27.6 nM
- TGI (A498 renal): 4.11 nM
- TGI (SW-620 colon): 2.51 nM
- TGI (UACC-62 melanoma): 2.36 nM
- TGI (HS 578T breast): 7.41 nM
- TGI (786-0 renal): 7.91 nM
- TGI (NCI-H23 lung): 1.87 nM
- TGI (NCI-H460 lung): > 90.1 nM
- TGI (UO-31 renal): 8.79 nM
- TGI (HCT-15 colon): > 59.7 nM
- TGI (IGROV1 ovarian): 0.858 nM
- TGI (RXF 393 renal): 3.47 nM
- TGI (SR leukemia): 0.329 nM
- TGI (HT29 colon): 4.91 nM
- TGI (MDA-N): 2.83 nM
- TGI (OVCAR-8 ovarian): > 100 nM
- TGI (SF-268 CNS): 30.5 nM
- TGI (HOP-92 NSCLC): 3.22 nM
- TGI (SF-295 CNS): > 21.4 nM
- TGI (NCI-H226 lung): 5.71 nM
- TGI (MDA-MB-435): 4.38 nM
- TGI (MOLT-4 leukemia): 14.4 nM
- TGI (SF-539 CNS): 7.74 nM
- TGI (MCF7 breast): > 100 nM
- TGI (M14 melanoma): 2.67 nM
- TGI (COLO 205 colon): > 100 nM
- TGI (OVCAR-5 ovarian): 3.53 nM
- TGI (OVCAR-3 ovarian): 2.3 nM
- TGI (NCI/ADR-RES ovarian): > 52 nM
- TGI (HOP-62 NSCLC): 10.4 nM
- TGI (KM12 colon): 2.27 nM
- TGI (PC-3 prostate): > 51.4 nM
- TGI (SNB-19 CNS): > 100 nM
- TGI (NCI-H522 lung): 0.444 nM
- TGI (MALME-3M melanoma): 0.743 nM
- TGI (CAKI-1 renal): 38.4 nM
- TGI (OVCAR-4 ovarian): 7.42 nM

Source: PubChem BioAssay (NCI)
